Measured values reported in the METLIN SMRT retention time set (Domingo-Almenara et al. 2019).

Assay: gradient 5% acetonitrile 3 min, to 50% in 2 min, to 85% in 15 min, held 3 min, 100 µL/min
Details: column: Zorbax Extend-C18 2.1 x 50 mm; eluents: water / acetonitrile, 0.1% formic acid
Procedure, shortened: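 Retention times of pure standards were taken from adduct peaks that were selected by computer and manually inspected. Over 3 months, mixtures of ~100 molecules were run by HPLC–quadrupole time-of-flight mass spectrometry in positive and negative ionization mode. The Zorbax Extend-C18 column (2.1 × 50 mm, 1.8 μm) ran at 100 μL/min in water and acetonitrile, each containing 0.1% formic acid, with 40 μL dead volume and 900 μL dwell volume.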

COc1ccc(NC(=O)N2CCCC(CN3CCc4ccccc4C3)C2)cc1OC (centres undefined)
RP-LC retention time: 628 s

CC(=O)c1cccc(NC(=O)N2CCCN(c3nc4ccccc4n4cccc34)CC2)c1
RP-LC retention time: 647 s

O=S(=O)(c1ccc2nncn2c1)N(Cc1cccc(F)c1)c1ccc(F)cc1
RP-LC retention time: 857 s

COCC(=O)N1CCCCC1c1nncn1Cc1ccccc1 (centres undefined)
RP-LC retention time: 612 s

COc1ccc(OC)c(NS(=O)(=O)c2ccc3c(c2)-c2oncc2CO3)c1
RP-LC retention time: 889 s

CCN(CC)CCCNC(=O)Cn1c2ccccc2c2cnn(C)c(=O)c21
RP-LC retention time: 596 s

CCn1nc(C(=O)Nc2nc3c(OC)ccc(C)c3s2)cc1C
RP-LC retention time: 872 s

NS(=O)(=O)c1ccc(NC(=O)CCCN2C(=O)c3cccc4cccc(c34)C2=O)cc1
RP-LC retention time: 694 s

Cc1ccc(-c2noc(Cn3ncn4nc(-c5cccs5)cc4c3=O)n2)cc1
RP-LC retention time: 1100 s

Cc1ccc(-c2nnc(-c3cccc(S(=O)(=O)NCC4CCCO4)c3)o2)cc1 (centres undefined)
RP-LC retention time: 918 s

COc1ccc(S(=O)(=O)N2CC=C(c3cn(C(C)C)c4ncccc34)CC2)cc1
RP-LC retention time: 1070 s

CCn1ccc2sc(C)c(C(=O)NCc3ccccc3Cl)c2c1=O
RP-LC retention time: 879 s

CCOc1ccc(NC(=O)Nc2nccn(-c3ccccc3)c2=O)cc1
RP-LC retention time: 913 s

O=S(=O)(c1ccc(F)cc1)N1CC(F)(F)C[C@H]1CN1CCc2ccccc2C1
RP-LC retention time: 738 s

O=C(CSc1nc(-c2ccccc2)ns1)Nc1nc2ccccc2s1
RP-LC retention time: 1000 s

Cc1cc(C)cc(-c2nnc(Cc3nc(-c4ccc(Br)cc4)no3)o2)c1
RP-LC retention time: 1270 s

COc1ccc(Cn2nc3c(S(=O)(=O)N4CCOCC4)cccn3c2=O)cc1
RP-LC retention time: 734 s

Cn1nc(-c2nnc(-c3ccccc3F)o2)c2c1CCN(S(=O)(=O)c1ccc(F)cc1)C2
RP-LC retention time: 903 s

Cn1cnc(S(=O)(=O)N2[C@H]3CC[C@@H]2c2cnc(-c4ccc(F)cc4)nc2C3)c1
RP-LC retention time: 764 s

COc1cc(Cl)c(C)cc1Nc1c(C(=O)N2CCC(C)CC2)cnc2nc(C)ccc12
RP-LC retention time: 706 s

COC(=O)N1CCN(C(=O)Cc2ccc(Cl)c(Cl)c2)C(CN2CCCC2)C1 (centres undefined)
RP-LC retention time: 688 s

COc1ccc(-c2cc(N3CCCC(C(=O)Nc4nccs4)C3)ncn2)cc1 (centres undefined)
RP-LC retention time: 582 s

CCOc1cc(N2CCN(C(=O)c3cc(Cl)ccc3OC)CC2)nc(C)n1
RP-LC retention time: 610 s

CCn1ccc(-c2nc(-c3cccc(-c4csc(C5CC5)n4)c3)no2)n1
RP-LC retention time: 1220 s

CS(=O)(=O)Nc1ccc(C2(C(=O)NC3CCCC3)CCCCC2)cc1
RP-LC retention time: 634 s

O=C(c1ccoc1)N1[C@H]2CC[C@@H]1c1cnc(-c3ccccc3)nc1C2
RP-LC retention time: 837 s

Cc1ccccc1-c1nnc(CSc2nnc(NC(=O)c3ccc(C(F)(F)F)cc3)s2)o1
RP-LC retention time: 1050 s

CC1CCN(S(=O)(=O)c2ccc3nn(Cc4cccc(C#N)c4)c(=O)n3c2)CC1
RP-LC retention time: 768 s

CCC(=O)N1CCN(c2nc3c(s2)CC(C(=O)NCc2cc(F)ccc2F)CC3)CC1 (centres undefined)
RP-LC retention time: 601 s

Cn1c(=O)oc2cc(-c3noc(CNS(=O)(=O)c4ccccc4)n3)ccc21
RP-LC retention time: 805 s

CCOc1ccc(C(=O)Nc2cc(Cl)ccc2C)nn1
RP-LC retention time: 1040 s

Cc1ccccc1Nc1c(-c2c(F)cccc2Cl)nc2ccc(Cl)cn12
RP-LC retention time: 984 s

COc1cc(NC(=O)CN2C(=O)COc3ccc(C(=O)N4CCCC4)cc32)cc(OC)c1
RP-LC retention time: 718 s

Cc1ccc(C2(O)C(=O)N(Cc3nc(-c4ccccc4)oc3C)c3ccccc32)cc1 (centres undefined)
RP-LC retention time: 1110 s

Cn1cnc(S(=O)(=O)N2CCCN(S(=O)(=O)Cc3ccccc3)CCNC(=O)CC2c2ccccc2)c1 (centres undefined)
RP-LC retention time: 711 s

CCN(CC)CCOc1ccc(Nc2ncc3cc(-c4c(Cl)cccc4Cl)c(=O)n(C)c3n2)cc1
RP-LC retention time: 783 s

COc1cccc(-c2nc(NCc3cccnc3)ncc2C(=O)O)c1
RP-LC retention time: 576 s

COc1ccccc1C(=O)Nc1cccn2ncnc12
RP-LC retention time: 803 s

COc1cccc(CNC(=O)CN2C(=O)C3CCCCN3c3ccc(S(=O)(=O)N(C)C)cc32)c1 (centres undefined)
RP-LC retention time: 887 s

COc1cccc(CNC(=O)CN2CCN(Cc3ccc(F)cc3)C2=O)c1OC
RP-LC retention time: 772 s

COc1ccc(-c2noc(C3CC(=O)N(c4cccc(Cl)c4)C3)n2)c(OC)c1 (centres undefined)
RP-LC retention time: 878 s

COc1cccc(C(O)CN2CCN(c3cccc(OC)c3)CC2)c1 (centres undefined)
RP-LC retention time: 659 s

CCOc1ccc(NC(=O)N2CCN(CCn3c(C(C)C)nc4cccnc43)CC2)cc1
RP-LC retention time: 610 s

COc1ccc(-c2nc(NCc3ccco3)ncc2C(=O)O)cc1
RP-LC retention time: 781 s
